# Like-named read-outs stand apart in the source and are kept apart here.
# Legend:
# Experiment in all cases: biochemical
# Design in all cases: Eurofins KinaseProfiler full panel at Km ATP, residual kinase activity (%) relative to DMSO
# ALK1(h) = target: T1, ALK1(h) (Homo sapiens, UniProt P37023)
# T1 construct: gene ACVRL1
# Summary of the method: (§1)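 Two 10 µM single-concentration screens were run: a competition-binding screen, in which DNA-tagged kinase bound to immobilized ligands was quantified by qPCR, and a radiometric activity panel at Km ATP. Each is expressed as residual kinase activity (%).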
# BTK(R28H)(h) = BTK(R28H)(h) (Homo sapiens, UniProt Q06187, R28H)
# Summary of the method: as §1
# Itk(h) = target: T2, Itk(h) (Homo sapiens, UniProt Q08881)
# T2 sequence (Q08881 1-620): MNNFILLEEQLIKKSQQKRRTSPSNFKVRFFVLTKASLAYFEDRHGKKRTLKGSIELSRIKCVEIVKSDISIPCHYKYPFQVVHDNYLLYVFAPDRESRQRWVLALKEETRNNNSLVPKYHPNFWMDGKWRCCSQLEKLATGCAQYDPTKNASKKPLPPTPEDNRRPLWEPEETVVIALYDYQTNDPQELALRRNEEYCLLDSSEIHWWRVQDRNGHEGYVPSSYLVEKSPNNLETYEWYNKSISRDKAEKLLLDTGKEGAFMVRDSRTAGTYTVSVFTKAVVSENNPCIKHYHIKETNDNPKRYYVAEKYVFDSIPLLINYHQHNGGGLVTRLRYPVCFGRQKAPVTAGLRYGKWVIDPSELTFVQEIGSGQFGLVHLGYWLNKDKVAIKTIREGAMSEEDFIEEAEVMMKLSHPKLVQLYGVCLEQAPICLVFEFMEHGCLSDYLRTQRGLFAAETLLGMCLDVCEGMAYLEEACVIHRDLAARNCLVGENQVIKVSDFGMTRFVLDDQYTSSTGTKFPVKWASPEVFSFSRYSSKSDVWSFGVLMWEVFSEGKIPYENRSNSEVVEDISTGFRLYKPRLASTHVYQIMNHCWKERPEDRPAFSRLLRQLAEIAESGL
# Summary of the method: as §1
# PAK1(h) = PAK1(h) (Homo sapiens, UniProt Q13153)
# Summary of the method: as §1
# PKCθ(h) = target: T3, PKCθ(h) (Homo sapiens, UniProt Q04759)
# T3 construct: gene PRKCQ
# Summary of the method: as §1
# Pyk2(h) = target: T4, Pyk2(h) (Homo sapiens, UniProt Q14289)
# T4 construct: gene PTK2B
# Summary of the method: as §1
# Src(T341M)(h) = Src(T341M)(h) (Homo sapiens, UniProt P12931, T341M)
# Summary of the method: as §1
# TAO1(h) = target: T5, TAO1(h) (Homo sapiens, UniProt Q7L7X3)
# T5 construct: gene TAOK1
# T5 sequence (Q7L7X3 1-1001): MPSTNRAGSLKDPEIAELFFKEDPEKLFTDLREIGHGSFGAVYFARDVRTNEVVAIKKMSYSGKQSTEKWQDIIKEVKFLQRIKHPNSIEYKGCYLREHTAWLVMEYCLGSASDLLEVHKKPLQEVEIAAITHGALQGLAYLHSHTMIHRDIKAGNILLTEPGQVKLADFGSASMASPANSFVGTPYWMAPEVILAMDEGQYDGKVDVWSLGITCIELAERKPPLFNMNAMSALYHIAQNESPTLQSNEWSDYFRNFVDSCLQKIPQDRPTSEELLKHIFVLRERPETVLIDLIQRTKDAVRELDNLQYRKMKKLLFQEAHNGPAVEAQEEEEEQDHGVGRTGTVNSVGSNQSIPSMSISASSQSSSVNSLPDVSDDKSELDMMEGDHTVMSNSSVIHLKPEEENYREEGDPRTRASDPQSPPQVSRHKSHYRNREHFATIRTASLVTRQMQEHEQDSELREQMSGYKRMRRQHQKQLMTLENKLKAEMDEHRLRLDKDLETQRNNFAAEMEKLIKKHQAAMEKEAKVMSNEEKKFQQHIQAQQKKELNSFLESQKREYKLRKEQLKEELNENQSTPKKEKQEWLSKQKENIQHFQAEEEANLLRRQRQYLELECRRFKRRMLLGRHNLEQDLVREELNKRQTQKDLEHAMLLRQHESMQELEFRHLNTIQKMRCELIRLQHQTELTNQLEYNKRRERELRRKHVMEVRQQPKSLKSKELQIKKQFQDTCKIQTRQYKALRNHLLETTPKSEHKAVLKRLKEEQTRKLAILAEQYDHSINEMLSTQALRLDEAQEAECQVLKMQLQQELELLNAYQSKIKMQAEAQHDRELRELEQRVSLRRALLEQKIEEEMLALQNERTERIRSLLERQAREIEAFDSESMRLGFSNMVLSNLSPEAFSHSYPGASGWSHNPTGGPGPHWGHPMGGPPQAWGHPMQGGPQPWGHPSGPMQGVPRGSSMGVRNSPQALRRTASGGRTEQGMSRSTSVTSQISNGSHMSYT
# Summary of the method: as §1
# [1] = read-out: Residual activity (%) 5at
# [2] = read-out: Residual activity (%) 5as
# [3] = read-out: Residual activity (%) 5ay
# [4] = read-out: Residual activity (%) Spautin-1 5aa
# T3 sequence (Q04759 whole entry): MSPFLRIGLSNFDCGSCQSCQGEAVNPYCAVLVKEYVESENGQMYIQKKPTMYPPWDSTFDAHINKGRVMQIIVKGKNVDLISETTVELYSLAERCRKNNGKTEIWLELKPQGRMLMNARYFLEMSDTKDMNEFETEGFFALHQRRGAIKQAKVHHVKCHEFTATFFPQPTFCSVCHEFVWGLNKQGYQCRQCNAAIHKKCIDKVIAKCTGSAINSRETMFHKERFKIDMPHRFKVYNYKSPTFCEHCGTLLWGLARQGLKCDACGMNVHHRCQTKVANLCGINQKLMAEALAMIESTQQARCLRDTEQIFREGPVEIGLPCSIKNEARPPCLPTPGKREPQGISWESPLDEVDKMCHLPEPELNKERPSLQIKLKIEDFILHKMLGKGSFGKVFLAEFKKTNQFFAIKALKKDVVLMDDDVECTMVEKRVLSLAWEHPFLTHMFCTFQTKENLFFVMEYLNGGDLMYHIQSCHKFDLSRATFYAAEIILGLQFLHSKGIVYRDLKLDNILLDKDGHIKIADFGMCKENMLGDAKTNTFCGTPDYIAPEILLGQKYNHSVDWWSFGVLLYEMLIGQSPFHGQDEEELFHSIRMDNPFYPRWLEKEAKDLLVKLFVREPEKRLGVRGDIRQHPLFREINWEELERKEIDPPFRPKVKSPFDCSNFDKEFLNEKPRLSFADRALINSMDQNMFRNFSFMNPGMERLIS
# T1 sequence (P37023 whole entry): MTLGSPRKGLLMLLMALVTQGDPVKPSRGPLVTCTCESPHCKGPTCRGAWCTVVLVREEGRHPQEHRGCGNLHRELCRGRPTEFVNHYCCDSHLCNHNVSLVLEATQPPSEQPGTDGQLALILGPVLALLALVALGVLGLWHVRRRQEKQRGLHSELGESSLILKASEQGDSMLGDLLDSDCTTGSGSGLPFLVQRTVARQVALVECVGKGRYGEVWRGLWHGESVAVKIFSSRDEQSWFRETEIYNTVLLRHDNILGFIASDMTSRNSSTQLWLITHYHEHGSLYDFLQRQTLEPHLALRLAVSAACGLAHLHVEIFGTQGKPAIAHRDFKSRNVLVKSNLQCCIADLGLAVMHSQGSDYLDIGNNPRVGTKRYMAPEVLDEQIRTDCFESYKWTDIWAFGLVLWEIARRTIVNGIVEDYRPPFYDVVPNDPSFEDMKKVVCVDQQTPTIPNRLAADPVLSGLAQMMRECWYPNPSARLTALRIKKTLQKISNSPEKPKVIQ
# Chain of PAK1(h) (Q13153 whole entry): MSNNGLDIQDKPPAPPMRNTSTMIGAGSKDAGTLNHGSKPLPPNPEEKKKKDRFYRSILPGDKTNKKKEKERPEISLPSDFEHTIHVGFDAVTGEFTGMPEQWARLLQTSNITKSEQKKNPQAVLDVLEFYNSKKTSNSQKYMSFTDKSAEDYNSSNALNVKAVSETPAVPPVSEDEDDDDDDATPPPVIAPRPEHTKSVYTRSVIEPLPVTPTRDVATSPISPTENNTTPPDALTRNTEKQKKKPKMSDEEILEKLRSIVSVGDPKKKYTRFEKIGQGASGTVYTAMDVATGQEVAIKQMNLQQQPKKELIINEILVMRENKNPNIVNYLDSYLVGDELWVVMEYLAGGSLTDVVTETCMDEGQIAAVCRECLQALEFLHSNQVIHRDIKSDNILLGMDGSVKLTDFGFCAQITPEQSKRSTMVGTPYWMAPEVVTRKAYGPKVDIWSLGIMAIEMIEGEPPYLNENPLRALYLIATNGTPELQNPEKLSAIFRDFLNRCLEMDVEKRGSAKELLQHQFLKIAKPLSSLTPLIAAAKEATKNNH
# T4 sequence (Q14289 whole entry): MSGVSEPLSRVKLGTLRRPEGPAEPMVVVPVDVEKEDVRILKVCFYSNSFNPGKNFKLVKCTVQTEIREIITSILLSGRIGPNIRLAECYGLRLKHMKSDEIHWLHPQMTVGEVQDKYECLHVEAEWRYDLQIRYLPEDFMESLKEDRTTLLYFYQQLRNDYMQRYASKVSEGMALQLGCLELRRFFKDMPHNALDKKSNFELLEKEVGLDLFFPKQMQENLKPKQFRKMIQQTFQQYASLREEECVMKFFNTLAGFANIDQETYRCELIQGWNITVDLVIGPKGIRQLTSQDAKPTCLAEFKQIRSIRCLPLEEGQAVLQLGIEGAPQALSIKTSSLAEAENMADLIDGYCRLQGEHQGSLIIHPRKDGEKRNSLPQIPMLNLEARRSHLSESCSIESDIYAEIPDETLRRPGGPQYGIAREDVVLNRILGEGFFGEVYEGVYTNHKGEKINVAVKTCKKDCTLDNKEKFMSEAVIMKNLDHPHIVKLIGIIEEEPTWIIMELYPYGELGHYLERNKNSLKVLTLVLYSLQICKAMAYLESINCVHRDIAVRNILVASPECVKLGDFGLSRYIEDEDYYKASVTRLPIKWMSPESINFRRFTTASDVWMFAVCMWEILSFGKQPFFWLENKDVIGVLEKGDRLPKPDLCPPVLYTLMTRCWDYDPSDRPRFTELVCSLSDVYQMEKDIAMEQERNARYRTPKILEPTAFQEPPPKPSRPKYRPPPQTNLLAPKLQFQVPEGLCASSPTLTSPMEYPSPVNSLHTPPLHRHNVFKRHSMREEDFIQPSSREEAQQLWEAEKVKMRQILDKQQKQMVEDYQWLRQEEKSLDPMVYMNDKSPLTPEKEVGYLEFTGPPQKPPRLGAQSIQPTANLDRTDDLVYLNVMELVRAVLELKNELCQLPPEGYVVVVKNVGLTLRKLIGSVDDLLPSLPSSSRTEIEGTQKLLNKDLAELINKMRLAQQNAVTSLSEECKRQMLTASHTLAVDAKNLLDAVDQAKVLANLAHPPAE
# Chain of Src(T341M)(h) (P12931 whole entry T341M): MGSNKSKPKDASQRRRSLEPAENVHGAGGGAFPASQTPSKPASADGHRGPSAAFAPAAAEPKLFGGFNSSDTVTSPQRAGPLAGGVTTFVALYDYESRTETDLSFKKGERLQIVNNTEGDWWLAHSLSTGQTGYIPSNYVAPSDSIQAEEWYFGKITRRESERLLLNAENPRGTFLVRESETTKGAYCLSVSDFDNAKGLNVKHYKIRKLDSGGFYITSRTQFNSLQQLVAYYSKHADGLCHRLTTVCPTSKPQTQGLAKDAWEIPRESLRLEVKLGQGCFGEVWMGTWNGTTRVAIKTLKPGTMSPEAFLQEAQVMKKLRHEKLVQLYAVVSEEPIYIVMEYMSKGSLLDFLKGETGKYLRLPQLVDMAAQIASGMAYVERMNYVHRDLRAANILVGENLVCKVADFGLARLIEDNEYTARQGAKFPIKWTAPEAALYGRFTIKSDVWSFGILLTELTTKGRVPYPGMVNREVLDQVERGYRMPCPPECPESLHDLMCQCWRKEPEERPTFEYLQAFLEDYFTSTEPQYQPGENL
# Chain of BTK(R28H)(h) (Q06187 whole entry R28H): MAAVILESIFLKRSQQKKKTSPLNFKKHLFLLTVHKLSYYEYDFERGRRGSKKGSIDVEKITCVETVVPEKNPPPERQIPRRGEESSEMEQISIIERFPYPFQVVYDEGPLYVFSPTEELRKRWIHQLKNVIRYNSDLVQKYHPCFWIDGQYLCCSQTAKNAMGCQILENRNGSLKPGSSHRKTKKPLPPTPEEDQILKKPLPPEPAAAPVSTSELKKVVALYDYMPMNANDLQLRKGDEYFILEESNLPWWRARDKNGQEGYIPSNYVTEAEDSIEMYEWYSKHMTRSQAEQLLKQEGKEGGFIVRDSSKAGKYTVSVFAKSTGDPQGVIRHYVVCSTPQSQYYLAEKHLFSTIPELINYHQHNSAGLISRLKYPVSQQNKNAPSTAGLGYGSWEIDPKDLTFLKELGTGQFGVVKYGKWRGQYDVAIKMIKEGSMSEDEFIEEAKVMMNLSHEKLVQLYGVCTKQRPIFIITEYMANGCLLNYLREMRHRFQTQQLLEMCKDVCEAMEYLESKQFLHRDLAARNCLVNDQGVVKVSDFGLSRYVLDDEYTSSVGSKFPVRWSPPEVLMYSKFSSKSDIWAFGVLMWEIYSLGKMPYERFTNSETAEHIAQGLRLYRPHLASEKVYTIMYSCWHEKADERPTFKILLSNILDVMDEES
structure (smiles),measurement,setting,value
"Fc1ccc2ncnc(NCCc3ccc(Cl)cc3)c2c1 [5at, N-[2-(4-Chlorophenyl)Ethyl]-6-Fluoro-4-Quinazolinamine]",remaining activity at 10 µM,ALK1(h); [1],93%
same,remaining activity at 10 µM,BTK(R28H)(h); [1],101%
same,remaining activity at 10 µM,Itk(h); [1],103%
same,remaining activity at 10 µM,PAK1(h); [1],90%
same,remaining activity at 10 µM,PKCθ(h); [1],90%
same,remaining activity at 10 µM,Pyk2(h); [1],69%
same,remaining activity at 10 µM,Src(T341M)(h); [1],83%
same,remaining activity at 10 µM,TAO1(h); [1],97%
"Fc1ccc(CCNc2ncnc3ccc(F)cc23)cc1 [5as, 6-Fluoro-N-[2-(4-Fluorophenyl)Ethyl]-4-Quinazolinamine]",remaining activity at 10 µM,ALK1(h); [2],85%
same,remaining activity at 10 µM,BTK(R28H)(h); [2],103%
same,remaining activity at 10 µM,Itk(h); [2],97%
same,remaining activity at 10 µM,PAK1(h); [2],81%
same,remaining activity at 10 µM,PKCθ(h); [2],100%
same,remaining activity at 10 µM,Pyk2(h); [2],74%
same,remaining activity at 10 µM,Src(T341M)(h); [2],103%
same,remaining activity at 10 µM,TAO1(h); [2],104%
"COc1ccc2ncnc(Nc3cccc(F)c3)c2c1 [5ay, N-(3-Fluorophenyl)-6-Methoxy-4-Quinazolinamine]",remaining activity at 10 µM,ALK1(h); [3],96%
same,remaining activity at 10 µM,BTK(R28H)(h); [3],103%
same,remaining activity at 10 µM,Itk(h); [3],88%
same,remaining activity at 10 µM,PAK1(h); [3],97%
same,remaining activity at 10 µM,PKCθ(h); [3],117%
same,remaining activity at 10 µM,Pyk2(h); [3],72%
same,remaining activity at 10 µM,Src(T341M)(h); [3],96%
same,remaining activity at 10 µM,TAO1(h); [3],95%
"Fc1ccc(CNc2ncnc3ccc(F)cc23)cc1 [5aa, 6-Fluoro-N-(4-fluorobenzyl)-4-Quinazolinamine]",remaining activity at 10 µM,ALK1(h); [4],104%
same,remaining activity at 10 µM,BTK(R28H)(h); [4],88%
same,remaining activity at 10 µM,Itk(h); [4],117%
same,remaining activity at 10 µM,PAK1(h); [4],94%
same,remaining activity at 10 µM,PKCθ(h); [4],80%
same,remaining activity at 10 µM,Pyk2(h); [4],86%
same,remaining activity at 10 µM,Src(T341M)(h); [4],94%
same,remaining activity at 10 µM,TAO1(h); [4],99%

# Reference: paper PMC7827406, “Structure–Activity Relationship (SAR) Study of Spautin-1 to Entail the Discovery of Novel NEK4 Inhibitors” (International Journal of Molecular Sciences, 2021)
